The target of experiment [1] is human histamine H1 receptor (Homo sapiens, UniProt P35367). Put plainly: In vitro human histamine H1 receptor binding experiment ([3H]pyrilamine). The note with it: HEK293A cells stably expressing human histamine H1 receptor, [3H]pyrilamine 3 nmol/L, room temperature 60 minutes. On the procedure: Recombinant human histamine H1 receptor plasmid (prepared by Invitrogen) was transfected to HEK293A cells with Lipofectamine 2000 (manufactured by Invitrogen). Cells stably expressing human histamine H1 receptor were screened with Geneticin (manufactured by Invitrogen). The cells were continued to be cultured using a Dulbecco's Modified Eagle Medium containing 10% fetal bovine serum, 0.1 mmol/L MEM Non-Essential Amino Acids Solution, 2 mmol/L L-glutamine and 0.7 mg/mL Geneticin in a 5% CO2 incubator at 37° C. The cells stably expressing human histamine H1 receptor were prepared using 50 mmol/L Tris-HCl (pH 7.5) (hereinafter referred to as buffer) containing 0.1% bovine serum albumin, so as to have a concentration of 3×10^6 cells/mL, to give a cell sample preparation. Fifty microliters of the buffer, 50 μl of a test substance solution at various concentrations, and 50 μL of [^3H]pyrilamine solution (final concentration: 3 nmol/L) were added to each of the wells on the 96-well plate, and stirred, and 100 μL of the cell sample preparation was then added thereto (at a concentration of 3×10^5 cells/well) to initiate the reaction.
Sequence of human histamine H1 receptor (P35367 whole entry): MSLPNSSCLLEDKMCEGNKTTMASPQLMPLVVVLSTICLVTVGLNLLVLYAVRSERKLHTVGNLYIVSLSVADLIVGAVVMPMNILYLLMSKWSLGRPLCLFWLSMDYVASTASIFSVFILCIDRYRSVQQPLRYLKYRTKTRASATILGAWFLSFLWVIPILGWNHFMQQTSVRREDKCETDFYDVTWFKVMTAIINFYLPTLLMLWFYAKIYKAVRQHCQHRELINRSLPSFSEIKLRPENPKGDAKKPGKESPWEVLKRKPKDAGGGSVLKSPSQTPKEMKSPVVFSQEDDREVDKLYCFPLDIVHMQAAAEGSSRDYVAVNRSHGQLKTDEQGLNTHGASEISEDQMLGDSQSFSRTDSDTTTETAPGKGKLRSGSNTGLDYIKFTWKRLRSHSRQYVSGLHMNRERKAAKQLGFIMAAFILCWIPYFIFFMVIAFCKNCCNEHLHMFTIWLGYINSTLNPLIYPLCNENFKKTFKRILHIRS
The cells were incubated at room temperature for 60 minutes, and then filtered on UniFilter GF/C plate (manufactured by Packard) immersed in 0.5% polyethyleneimine using a cell harvester (IH-110, manufactured by INNOTECH CORPORATION), to stop the reaction, and the plate was washed with the buffer. The plate after washing was sufficiently dried, and 20 μL of a scintillator (MaxiLight, manufactured by Hidex) was added thereto, and count per minute (cpm) was measured with a multi-labeled microplate reader (Plate Chameleo II, manufactured by Hidex). The nonspecific binding was cpm in a case where 30 μmol/L pyrilamine was added. The experiments were carried out at n=3, and at least repeated 3 times.

A further experiment has as its target T1, cerebral H1 receptor (Mus musculus, UniProt P70174).
T1 construct: the entire brain, except for cerebellum and medulla oblongatae, was rapidly excised; from tissue; host or cells: brain homogenate (without cerebellum and medulla oblongata) of orally dosed ICR male mice
Nature of the experiment: Murine cerebral H1 receptor occupying content (ex vivo). Type of experiment: in vivo. The note with it: for ED50: ICR male mouse, oral administration, brain excised after 1 hour, 3H-pyrilamine binding in brain homogenate, larger = lower brain transfer, read-out: ID50 (the source's name); for ID50 (mg/kg)/ ED50 (mg/kg): ID50 of cerebral receptor binding test (Table 20) divided by ED50 of vascular hyperpermeability test (Table 19). The protocol: A 6-week-old ICR male mouse was previously fed for one week or more by allowing the mouse to take a solid feed and tap water ad libitum, under the environment setting of a temperature of 22° C., humidity of 55% and an artificial illumination of 12 hours a day, and the mouse was fasted overnight to be used for the experiment. A substance to be tested was dissolved with water for injection or suspended in 0.5% carboxymethyl cellulose solution, and the solution or suspension was orally administered to the mouse (dose volume: 0.1 mL/10 g body weight). After 1 hour from the oral administration, the mouse was decapitated, and the entire brain, except for cerebellum and medulla oblongatae, was rapidly excised. The excised brain tissue was homogenized with Polytron (manufactured by Kinematica) in an ice-cooled 50 mmol/L phosphate buffered saline (pH 7.4, 100 mg/1.9 mL).
To a test tube for reaction (TPX-Tube) were added 180 μL of the brain homogenate, and 10 μL of ^3H-pyrilamine solution (final concentration: 2 nmol/L) and 10 μL of a non-labeled pyrilamine solution (final concentration: 200 μmol/L) or a 50 mmol/L phosphate buffered saline, and the mixture was incubated at room temperature for 45 minutes, and 2.0 mL of an ice-cooled, 50 mmol/L phosphate buffered saline was then added thereto to stop the reaction. The reaction mixture was filtered with a GF/B filter (manufactured by […]), and the […] was placed in a vial and dried overnight at 60 degrees. After drying, 10 mL of a scintillator (AL-1, toluene-based, manufactured by DOJINDO LABORATORIES) was added to the product, and the disintegration per minute (dpm) was measured with a liquid scintillation counter (manufactured by Packard, U.S.A., TRI-CARB 2700TR) (5 minutes/vial).

The subject of experiment [2] is histamine-induced vascular hyperpermeability reaction. Nature of the experiment: Rat histamine-induced vascular hyperpermeability reaction (in vivo antihistamine action). The following applies: SD male rat, oral administration 1 hour before intracutaneous histamine, leaked Evans Blue pigment. The protocol: An SD male rat (SPF) of 180 g in weight was previously fed for one week or more by allowing the rat to take a solid feed and tap water ad libitum, under the environment setting of a temperature of 22° C., humidity of 55% and an artificial illumination of 12 hours a day (light phase 8 am to 8 pm), and the rat was fasted overnight to be used for the experiment. Histamine•dihydrochloride (hereinafter referred to as histamine) and Evans Blue were used by dissolving each in physiological saline upon use. A substance to be tested was dissolved in water for injection or suspended in 0.5% carboxymethyl cellulose sodium, and the rat was orally administered with the solution or suspension (dose volume: 5 mL/kg body weight). After 1 hour from the administration, the physiological saline and the histamine solution were each intracutaneously injected to two locations (20 μg/0.05 ml/location) each on a back part of the rat of which hair was sheared with an electric clipper while anesthetizing with an ether. A 0.5% Evans Blue-containing physiological saline was injected intravenously to the tail of the rat (1 mL/200 g body weight) immediately before the intracutaneous injection of the histamine.
After 30 minutes, the animal was decapitated, and allowed to bleed lethally, and the skin was removed to measure an amount of leaked pigment in the blue-stained portion. The measurement of the amount of leaked pigment was carried out as follows. Skins of the pigment leaking site were cut out at two locations, 1 mL of a 2 mol/L aqueous potassium hydroxide solution was added thereto in a test tube, and the test tube was allowed to stand overnight at 37° C. to dissolve. Thereafter, 6 mL of a 1:3 mixed solution of 0.67 mol/L phosphoric acid and acetone was added to the solution, and the mixture was vigorously shaken for 10 minutes. Thereafter, the mixture was filtered, and the absorbance of the filtrate at 620 nm was measured. The absorbance obtained from the two locations of the sites injected with physiological saline, as blank value, was used for a compensation. The amount of leaked pigment was calculated from the calibration curve of Evans Blue at 620 nm.

A value given as a limit tells only on which side of the number the result lay.

T1 sequence (P70174 whole entry): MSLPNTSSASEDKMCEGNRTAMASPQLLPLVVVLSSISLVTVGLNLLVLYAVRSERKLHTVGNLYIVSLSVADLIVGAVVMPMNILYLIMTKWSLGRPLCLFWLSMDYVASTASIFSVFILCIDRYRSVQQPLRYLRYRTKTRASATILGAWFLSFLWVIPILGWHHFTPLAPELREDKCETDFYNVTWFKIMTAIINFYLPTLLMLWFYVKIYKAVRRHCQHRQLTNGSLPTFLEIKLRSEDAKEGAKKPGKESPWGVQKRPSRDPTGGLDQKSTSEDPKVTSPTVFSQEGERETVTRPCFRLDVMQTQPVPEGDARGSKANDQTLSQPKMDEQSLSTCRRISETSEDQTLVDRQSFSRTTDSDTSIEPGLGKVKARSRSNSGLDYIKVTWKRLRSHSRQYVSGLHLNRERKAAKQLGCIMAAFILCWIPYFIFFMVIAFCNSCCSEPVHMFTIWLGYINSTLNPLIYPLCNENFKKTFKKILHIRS

`COC(=O)Cc1ccc2c(c1)C(=C1CCN(CCCO)CC1)c1sccc1CO2.Cl` [Compound 138, Methyl {4-[1-(3-hydroxypropyl)piperidin-4-ylidene]-4,10-dihydro-9-oxa-3-thiabenzo[f]azulen-6-yl}acetate hydrochloride]: the half-inhibitory concentration (IC50) – broadly, the concentration that gives 50% inhibition – in experiment [1] turned out to be 26 nM. For the same compound, on cerebral H1 receptor, the ED50 came to 65.4 mg/kg and the “ID50 (mg/kg)/ ED50 (mg/kg)” value is listed as 139.1. For the same compound, in experiment [2], the ED50 was 0.47 mg/kg.
As for `CCCN1CCC(=C2c3cc(CC(=O)O)ccc3OCc3ccsc32)CC1` [Compound 130, [4-(1-Propylpiperidin-4-ylidene)-4,10-dihydro-9-oxa-3-thiabenzo[f]azulen-6-yl]acetic acid], in experiment [1], the IC50 was 78.4 nM. At cerebral H1 receptor, the ED50 came to 8 mg/kg and the “ID50 (mg/kg)/ ED50 (mg/kg)” value turned out to be 181.8. In experiment [2], this compound displayed an ED50 of 0.044 mg/kg.
In turn, `CCOC(=O)Cc1ccc2c(c1)C(=C1CCN(C)CC1)c1sccc1CO2.Cl` [Compound 140, Ethyl[4-(1-methylpiperidin-4-ylidene)-4,10-dihydro-9-oxa-3-thiabenzo[f]azulen-6-yl]acetate hydrochloride] returned an IC50 in experiment [1] of 10.1 nM. Moreover, on cerebral H1 receptor, the ED50 is 3.5 mg/kg and the “ID50 (mg/kg)/ ED50 (mg/kg)” value worked out at 350.0. The compound further had an ED50 in experiment [2] of about 0.01 mg/kg.
With `CCOC(=O)C=Cc1cc2c(s1)CCc1ccccc1C2=C1CCNCC1.Cl` [Compound 145, Ethyl 3-(4-piperidin-4-ylidene-9,10-dihydro-4H-1-thiabenzo[f]azulen-2-yl)acrylate hydrochloride], the IC50 in experiment [1] came out at 68.6 nM. Moreover, on cerebral H1 receptor, the ED50 is over 200 mg/kg and the “ID50 (mg/kg)/ ED50 (mg/kg)” value is given as over 689.7. The compound also showed an ED50 in experiment [2] of 0.29 mg/kg.
The matching figures for `COC(=O)Cc1ccc2c(c1)C(=C1CCN(CCO)CC1)c1sccc1CO2.Cl` [Compound 118, Methyl {4-[1-(2-hydroxyethyl)piperidin-4-ylidene]-4,10-dihydro-9-oxa-3-thiabenzo[f]azulen-6-yl}acetate hydrochloride]: 23.6 nM, 24.3 mg/kg, 50.6 and 0.48 mg/kg.
Consider `O=C(O)CCc1cc2c(s1)C=Cc1ccccc1C2=C1CCNCC1` [Compound 209, 3-(4-Piperidin-4-ylidene-4H-1-thiabenzo[f]azulen-2-yl)propionic acid], for which the ED50 is over 200 mg/kg at cerebral H1 receptor and 0.42 mg/kg in experiment [2]. The “ID50 (mg/kg)/ ED50 (mg/kg)” value on cerebral H1 receptor is given as over 476.2.
`CN1CCC(=C2c3cc(CC(=O)O)ccc3OCc3ccsc32)CC1.Cl` [Compound 54, [4-(1-Methylpiperidin-4-ylidene)-4,10-dihydro-9-oxa-3-thiabenzo[f]azulen-6-yl]acetic acid hydrochloride]: on cerebral H1 receptor, the ED50 worked out at 9.3 mg/kg and the “ID50 (mg/kg)/ ED50 (mg/kg)” value is given as 344.4. Also, the ED50 in experiment [2] was determined as 0.027 mg/kg.
Turning to `CN1CCC(=C2c3ccccc3CC(=O)c3sc(C=CC(=O)O)cc32)CC1` [Compound 48, 3-[4-(1-Methylpiperidin-4-ylidene)-10-oxo-9,10-dihydro-4H-1-thiabenzo[f]azulen-2-yl]acrylic acid], on cerebral H1 receptor, the ED50 came out at 95.5 mg/kg and the “ID50 (mg/kg)/ ED50 (mg/kg)” value was 140.4. Moreover, the ED50 in experiment [2] was determined as 0.68 mg/kg.
The matching figures for `CCOC(=O)C(C)(C)c1cc2c(s1)CCc1ccccc1C2=C1CCNCC1.Cl` [Compound 152, Ethyl 2-methyl-2-(4-piperidin-4-ylidene-9,10-dihydro-4H-1-thiabenzo[f]azulen-2-yl)propionate hydrochloride]: 199 mg/kg, 133.8 and 1.49 mg/kg.
In the same order, the values of `CCCOC(=O)Cc1ccc2c(c1)C(=C1CCNCC1)c1sccc1CO2.Cl` [Compound 137, Propyl (4-piperidin-4-ylidene-4,10-dihydro-9-oxa-3-thiabenzo[f]azulen-6-yl)acetate hydrochloride] are over 200 mg/kg, over 833.3 and 0.24 mg/kg.
For the compound `COC(=O)Cc1ccc2c(c1)C(=C1CCN(CC(C)=O)CC1)c1sccc1CO2.Cl` [Compound 167, Methyl {4-[1-(2-oxopropyl)piperidin-4-ylidene]-4,10-dihydro-9-oxa-3-thiabenzo[f]azulen-6-yl}acetate hydrochloride], the ED50 was found to be 35.1 mg/kg at cerebral H1 receptor and 0.194 mg/kg in experiment [2]. Besides, the “ID50 (mg/kg)/ ED50 (mg/kg)” value on cerebral H1 receptor was 180.9.
In the same order, the values of `CC(=O)CCCN1CCC(=C2c3cc(CC(=O)O)ccc3OCc3ccsc32)CC1` [Compound 170, {4-[1-(4-Oxopentyl)piperidin-4-ylidene]-4,10-dihydro-9-oxa-3-thiabenzo[f]azulen-6-yl}acetic acid] are 70.3 mg/kg, 0.614 mg/kg and 114.5.
In the same order, the values of `CC(C)N1CCC(=C2c3cc(CC(=O)O)ccc3OCc3ccsc32)CC1` [Compound 132, [4-(1-Isopropylpiperidin-4-ylidene)-4,10-dihydro-9-oxa-3-thiabenzo[f]azulen-6-yl]acetic acid] are 37.5 mg/kg, 0.17 mg/kg and 220.6.
Take `CN1CCC(=C2c3cc(C(=O)O)ccc3OCc3ccsc32)CC1` [Compound 26, [4-(1-Methylpiperidin-4-ylidene)-4,10-dihydro-9-oxa-3-thiabenzo[f]azulen-6-yl]carboxylic acid]: on cerebral H1 receptor, the ED50 turned out to be 4.8 mg/kg and the “ID50 (mg/kg)/ ED50 (mg/kg)” value stood at 81.4. This compound also had an ED50 in experiment [2] of 0.059 mg/kg.
The matching figures for `O=C(O)Cc1ccc2c(c1)C(=C1CCN(CCCO)CC1)c1sccc1CO2` [Compound 139, {4-[1-(3-Hydroxypropyl)piperidin-4-ylidene]-4,10-dihydro-9-oxa-3-thiabenzo[f]azulen-6-yl}acetic acid]: over 200 mg/kg, over 89.3 and 2.24 mg/kg.
